Test [1] concerns control sera (pooled serum of ten healthy LUMC hospital workers; commercial negative donor pooled serum from the Dutch bloodbank). The class given is binding, human. More on the design: Binding of Control serum LUMC to linear peptides / Binding of Control serum Blood-bank to linear peptides / Binding of Control serum LUMC to looped peptides / Binding of Control Serum Blood-Bank to Looped peptides / Binding of Control serum LUMC to linear peptides of the protein M of SARS-CoV Urbani / Binding of Control serum Blood-bank to linear peptides of the protein M of SARS-CoV Urbani / Binding of Control serum LUMC to looped peptides of the protein M of SARS-CoV Urbani / Binding of Control Serum Blood-Bank to Looped peptides of the protein M of SARS-CoV Urbani: unit not given here.

Test [2] concerns rabbit serum obtained by immunizing a rabbit with the SARS-CoV strain Frankfurt 1. The class given is binding. More on the design: Binding of a rabbit serum to linear peptides / Binding of a rabbit serum to looped peptides / Rabbit serum linear peptides / Rabbit serum looped peptides / Binding of a rabbit serum to linear peptides of protein N of SARS-CoV Urbani (Rabbit serum linear peptides) / Binding of a rabbit serum to looped/cyclic peptides of protein N of SARS-CoV Urbani (Rabbit serum looped peptides): unit not given here.

Test [3] deals with antibodies in sera from SARS patients (sera 1a, 1b, 2, 6, 37, 62, London, SARS-yellow, SARS-green). The class given is binding, human. On the set-up: Binding of serum 6 to linear peptides of protein X1 of SARS-CoV Urbani / Binding of serum 37 to linear peptides of protein X1 of SARS-CoV Urbani / Binding of serum 6 to looped/cyclic peptide (PEPSCAN-ELISA) / Binding of serum 37 to looped/cyclic peptide (PEPSCAN-ELISA) / Binding of serum 37 to looped/cyclic peptides of protein X1 of SARS-CoV Urbani / Binding of serum 6 to linear peptides of protein X2 / Binding of serum 37 to linear peptides of protein X2 / Binding of serum 37 to looped/cyclic peptides of protein X2 of SARS-CoV Urbani / Binding of serum 6 to linear peptides of protein M of SARS-CoV Urbani / Binding of serum 37 to linear peptides of protein M of SARS-CoV Urbani / Binding of serum 6 to looped/cyclic peptides of protein M of SARS-CoV Urbani / Binding of serum 37 to looped/cyclic peptides of protein M of SARS-CoV Urbani / Binding of serum 6 to linear peptides of protein X3 of SARS-CoV Urbani / Binding of serum 37 to linear peptides of protein X3 of SARS-CoV Urbani / Binding of serum 37 to looped/cyclic peptides of protein X3 of SARS-CoV Urbani / Binding of serum 6 to linear peptides of protein X4 of SARS-CoV Urbani / Binding of serum 37 to linear peptides of protein X4 of SARS-CoV Urbani / Binding of serum 37 to looped/cyclic peptides of protein X4 of SARS-CoV Urbani / Binding of serum 6 to linear peptides of protein X5 of SARS-CoV Urbani / Binding of serum 37 to linear peptides of protein X5 of SARS-CoV Urbani / Binding of serum 37 to looped/cyclic peptides of protein X5 of SARS-CoV Urbani / Binding of serum 6 to linear peptides of protein N of SARS-CoV Urbani / Binding of serum 37 to linear peptides of protein N of SARS-CoV Urbani / Binding of serum 6 to linear peptide (PEPSCAN-ELISA) / Binding of serum 1a to looped/cyclic peptides of protein N of SARS-CoV Urbani / Binding of serum 1b to looped/cyclic peptides of protein N of SARS-CoV Urbani / Binding of serum 2 to looped/cyclic peptides of protein N of SARS-CoV Urbani / Binding of serum 6 to looped/cyclic peptides of protein N of SARS-CoV Urbani / Binding of serum 37 to looped/cyclic peptides of protein N of SARS-CoV Urbani / Binding of serum 62 to looped/cyclic peptides of protein N of SARS-CoV Urbani / Binding of serum London to looped/cyclic peptides of protein N of SARS-CoV Urbani / Binding of serum SARS-green to looped/cyclic peptides of protein N of SARS-CoV Urbani: unit not given here.

As for VTDTIVVTEGDGIST, in test [1], the “Binding of Control Serum Blood-Bank to Looped peptides” value is 0.4, the “Binding of Control serum Blood-bank to linear peptides” value came out at 0.4, the “Binding of Control serum LUMC to linear peptides” value came to 0.4 and the “Binding of Control serum LUMC to looped peptides” value turned out to be 0.4. Moreover, in test [2], the “Binding of a rabbit serum to linear peptides” value was 0.1 and the “Binding of a rabbit serum to looped peptides” value turned out to be 0.5. Also, in test [3], the “Binding of serum 1a to linear peptides of protein X1 of SARS-CoV Urbani” value was found to be 0.6, the “Binding of serum 1a to looped/cyclic peptides of protein X1 of SARS-CoV Urbani” value was 0.4, the “Binding of serum 1b to linear peptides of protein X1 of SARS-CoV Urbani” value turned out to be 0.5 and the “Binding of serum 1b to looped/cyclic peptides of protein X1 of SARS-CoV Urbani” value was determined as 0.3. For the same sequence, in test [3], the “Binding of serum 2 to linear peptides of protein X1 of SARS-CoV Urbani” value came to 0.3, the “Binding of serum 2 to looped/cyclic peptides of protein X1 of SARS-CoV Urbani” value came out at 0.2, the “Binding of serum 6 to linear peptides of protein X1 of SARS-CoV Urbani” value turned out to be 0.4 and the “Binding of serum 6 to looped/cyclic peptides of protein X1 of SARS-CoV Urbani” value was determined as 0.1. Moreover, in test [3], the “Binding of serum 37 to linear peptides of protein X1 of SARS-CoV Urbani” value was determined as 0.5, the “Binding of serum 37 to looped/cyclic peptides of protein X1 of SARS-CoV Urbani” value was found to be 0.4, the “Binding of serum 62 to linear peptides of protein X1 of SARS-CoV Urbani” value is 0.4 and the “Binding of serum 62 to looped/cyclic peptides of protein X1 of SARS-CoV Urbani” value worked out at 0.4. In test [3], the “Binding of serum London to linear peptides of protein X1 of SARS-CoV Urbani” value is recorded as 0.2, the “Binding of serum London to looped/cyclic peptides of protein X1 of SARS-CoV Urbani” value is 0.2, the “Binding of serum SARS-green to linear peptides of protein X1 of SARS-CoV Urbani” value worked out at 0.1 and the “Binding of serum SARS-green to looped/cyclic peptides of protein X1 of SARS-CoV Urbani” value stood at 0.2. For the same sequence, in test [3], the “Binding of serum SARS-yellow to linear peptides of protein X1 of SARS-CoV Urbani” value came out at 0.3 and the “Binding of serum SARS-yellow to looped/cyclic peptides of protein X1 of SARS-CoV Urbani” value was determined as 0.5.
For VTEGDGISTPKLKED, in test [1], the “Binding of Control Serum Blood-Bank to Looped peptides” value is listed as 0.3, the “Binding of Control serum Blood-bank to linear peptides” value is on record as 0.2, the “Binding of Control serum LUMC to linear peptides” value was 0.2 and the “Binding of Control serum LUMC to looped peptides” value stood at 0.3. Besides, in test [2], the “Binding of a rabbit serum to linear peptides” value stood at 0.0 and the “Binding of a rabbit serum to looped peptides” value is on record as 0.4. Further, in test [3], the “Binding of serum 1a to linear peptides of protein X1 of SARS-CoV Urbani” value turned out to be 0.5, the “Binding of serum 1a to looped/cyclic peptides of protein X1 of SARS-CoV Urbani” value was 0.3, the “Binding of serum 1b to linear peptides of protein X1 of SARS-CoV Urbani” value amounted to 0.4 and the “Binding of serum 1b to looped/cyclic peptides of protein X1 of SARS-CoV Urbani” value is listed as 0.2. In addition, in test [3], the “Binding of serum 2 to linear peptides of protein X1 of SARS-CoV Urbani” value came out at 0.3, the “Binding of serum 2 to looped/cyclic peptides of protein X1 of SARS-CoV Urbani” value turned out to be 0.1, the “Binding of serum 6 to linear peptides of protein X1 of SARS-CoV Urbani” value was 0.3 and the “Binding of serum 6 to looped/cyclic peptides of protein X1 of SARS-CoV Urbani” value came to 0.1. In test [3], the “Binding of serum 37 to linear peptides of protein X1 of SARS-CoV Urbani” value was found to be 0.4, the “Binding of serum 37 to looped/cyclic peptides of protein X1 of SARS-CoV Urbani” value is 0.3, the “Binding of serum 62 to linear peptides of protein X1 of SARS-CoV Urbani” value worked out at 0.3 and the “Binding of serum 62 to looped/cyclic peptides of protein X1 of SARS-CoV Urbani” value is listed as 0.3. Further, in test [3], the “Binding of serum London to linear peptides of protein X1 of SARS-CoV Urbani” value was determined as 0.3, the “Binding of serum London to looped/cyclic peptides of protein X1 of SARS-CoV Urbani” value turned out to be 0.2, the “Binding of serum SARS-green to linear peptides of protein X1 of SARS-CoV Urbani” value was found to be 0.1 and the “Binding of serum SARS-green to looped/cyclic peptides of protein X1 of SARS-CoV Urbani” value is on record as 0.1. Also, in test [3], the “Binding of serum SARS-yellow to linear peptides of protein X1 of SARS-CoV Urbani” value amounted to 0.2 and the “Binding of serum SARS-yellow to looped/cyclic peptides of protein X1 of SARS-CoV Urbani” value is on record as 0.1.
Turning to VTIAEILIIIMRTFR, in test [1], the “Binding of Control Serum Blood-Bank to Looped peptides of the protein X3 of SARS-CoV Urbani” value was 0.8, the “Binding of Control serum Blood-bank to linear peptides of the protein X3 of SARS-CoV Urbani” value is given as 0.8, the “Binding of Control serum LUMC to linear peptides of the protein X3 of SARS-CoV Urbani” value was 0.6 and the “Binding of Control serum LUMC to looped peptides of the protein X3 of SARS-CoV Urbani” value was 0.8. Further, in test [2], the “Rabbit serum linear peptides” value came out at 0.2 and the “Rabbit serum looped peptides” value is recorded as 0.4. In test [3], the “Binding of serum 1a to linear peptides of protein X3 of SARS-CoV Urbani” value is 0.7, the “Binding of serum 1a to looped/cyclic peptides of protein X3 of SARS-CoV Urbani” value stood at 0.7, the “Binding of serum 1b to linear peptides of protein X3 of SARS-CoV Urbani” value worked out at 0.3 and the “Binding of serum 1b to looped/cyclic peptides of protein X3 of SARS-CoV Urbani” value worked out at 0.4. Moreover, in test [3], the “Binding of serum 2 to linear peptides of protein X3 of SARS-CoV Urbani” value is on record as 0.7, the “Binding of serum 2 to looped/cyclic peptides of protein X3 of SARS-CoV Urbani” value was found to be 0.7, the “Binding of serum 6 to linear peptides of protein X3 of SARS-CoV Urbani” value worked out at 0.7 and the “Binding of serum 6 to looped/cyclic peptides of protein X3 of SARS-CoV Urbani” value was found to be 0.7. Besides, in test [3], the “Binding of serum 37 to linear peptides of protein X3 of SARS-CoV Urbani” value is 0.4, the “Binding of serum 37 to looped/cyclic peptides of protein X3 of SARS-CoV Urbani” value was 0.6, the “Binding of serum 62 to linear peptides of protein X3 of SARS-CoV Urbani” value is listed as 0.6 and the “Binding of serum 62 to looped/cyclic peptides of protein X3 of SARS-CoV Urbani” value came out at 0.5. For the same sequence, in test [3], the “Binding of serum London to linear peptides of protein X3 of SARS-CoV Urbani” value is reported as 0.6, the “Binding of serum London to looped/cyclic peptides of protein X3 of SARS-CoV Urbani” value amounted to 0.3, the “Binding of serum SARS-green to linear peptides of protein X3 of SARS-CoV Urbani” value is listed as 0.5 and the “Binding of serum SARS-green to looped/cyclic peptides of protein X3 of SARS-CoV Urbani” value came to 0.2. In addition, in test [3], the “Binding of serum SARS-yellow to linear peptides of protein X3 of SARS-CoV Urbani” value is 0.3 and the “Binding of serum SARS-yellow to looped/cyclic peptides of protein X3 of SARS-CoV Urbani” value is listed as 0.6.
VTIYSHLLLVAAGME: in test [1], the “Binding of Control Serum Blood-Bank to Looped peptides” value is 0.4, the “Binding of Control serum Blood-bank to linear peptides” value stood at 0.5, the “Binding of Control serum LUMC to linear peptides” value was 0.5 and the “Binding of Control serum LUMC to looped peptides” value turned out to be 0.6. For the same sequence, in test [2], the “Binding of a rabbit serum to linear peptides” value was 0.1 and the “Binding of a rabbit serum to looped peptides” value was 0.5. In test [3], the “Binding of serum 1a to linear peptides of protein X1 of SARS-CoV Urbani” value turned out to be 0.8, the “Binding of serum 1a to looped/cyclic peptide (PEPSCAN-ELISA)” value is listed as 0.5, the “Binding of serum 1b to linear peptides of protein X1 of SARS-CoV Urbani” value is 0.7 and the “Binding of serum 1b to looped/cyclic peptide (PEPSCAN-ELISA)” value is listed as 0.4. Further, in test [3], the “Binding of serum 2 to linear peptides of protein X1 of SARS-CoV Urbani” value is given as 0.5, the “Binding of serum 2 to looped/cyclic peptide (PEPSCAN-ELISA)” value came to 0.5, the “Binding of serum 6 to linear peptides of protein X1 of SARS-CoV Urbani” value came out at 0.4 and the “Binding of serum 6 to looped/cyclic peptide (PEPSCAN-ELISA)” value was determined as 0.3. Also, in test [3], the “Binding of serum 37 to linear peptides of protein X1 of SARS-CoV Urbani” value is reported as 0.6, the “Binding of serum 37 to looped/cyclic peptide (PEPSCAN-ELISA)” value is listed as 0.5, the “Binding of serum 62 to linear peptides of protein X1 of SARS-CoV Urbani” value is 0.6 and the “Binding of serum 62 to looped/cyclic peptide (PEPSCAN-ELISA)” value is recorded as 0.4. Further, in test [3], the “Binding of serum London to linear peptides of protein X1 of SARS-CoV Urbani” value is listed as 0.3, the “Binding of serum London to looped/cyclic peptide (PEPSCAN-ELISA)” value came to 0.2, the “Binding of serum SARS-green to linear peptides of protein X1 of SARS-CoV Urbani” value stood at 0.3 and the “Binding of serum SARS-green to looped/cyclic peptide (PEPSCAN-ELISA)” value is listed as 0.3. Moreover, in test [3], the “Binding of serum SARS-yellow to linear peptides of protein X1 of SARS-CoV Urbani” value is recorded as 0.6 and the “Binding of serum SARS-yellow to looped/cyclic peptide (PEPSCAN-ELISA)” value is listed as 0.3.

For the origin of these results see patent publication US20070128217A1 (priority 2003, published 2007).
